# Experimental data from patent publication US20150329918A1, “JAGGED1 AS A MARKER AND THERAPEUTIC TARGET FOR BREAST CANCER BONE METASTASIS” (The Trustees of Princeton University, priority 2011, published 2015).
# How the values were obtained:
# MC3T3-E1 osteoblasts = assay: Microarray gene expression profiling of FACS-separated MC3T3-E1 osteoblasts; type: cell-based, mouse; conditions: FIG. 11B
# Source text: For microarray analysis the quality of the FACS-separated MC3T3-E1 RNA samples was monitored using the 2100 bioanalyzer (Agilent) before gene expression profiling with the Agilent mouse […] microarrays. To find genes regulated by JAGGED1 and MRK-003 in osteoblasts, expression data of MC3T3-E1 under the indicated coculture and treatment conditions were generated and normalized by the array median, and probes were filtered by the expression levels. Probes with >2-fold changes in MC3T3-E1 cells cocultured with JAG1 OE tumor cells relative to vector-control tumor cells were identified as the regulated genes.
# [1] = test system: SCP28 tumor cells cocultured with MC3T3-E1 osteoblasts; assay: Osteoblast coculture tumor cell quantification by luciferase assay; type: cell-based, human; conditions: luciferase assay after 6 days; MRK-003 1 μM or 5 μM; anti-IL-6 0.5 and 1.0 μg/ml
# Procedure: MC3T3-E1 cells were seeded at 2×10^5 cells/well in 12-well plates. After confluence was achieved, luciferase/GFP-labeled (GFP+) control and JAG1 OE cells were added at 1×10^4 cells/well in triplicate and treated with DMSO or 1 μM MRK-003. Media supplemented with appropriate drugs were changed every 2 days. After 6 days the coculture was subjected to a luciferase assay to selectively quantify the number of tumor cells. These values were normalized against luciferase quantification of 12-well plates seeded with tumor cells alone.
# For transfection experiments, MC3T3-E1 osteoblasts were seeded at 2×10^5 cells/well in 12-well plates and grown to 95% confluence. […] Following 6 days, the coculture was lysed and subjected to a luciferase assay to selectively quantify the number of tumor cells. For gene expression analysis, RNA from cocultures was collected in RLT lysis buffer, extracted with RNeasy mini kit (Qiagen), and subjected to quantitative RT-PCR.
# For in vitro experiments, GSI-IX (Calbiochem) and TGFβ Receptor 1 (EMD Biosciences 616451) were dissolved in DMSO. […] RNA and protein were collected and analyzed for JAGGED1 expression as described above. […]
# [2] = test system: pre-osteoclast Raw 264.7 cells; assay: Osteoclastogenesis coculture assay (TRAP staining); type: cell-based, mouse
# Procedure: After seeding 5×10^4 control or JAG1 OE tumor cells/well into 12-well plates, murine pre-osteoclast Raw 264.7 (2×10^5 cells/well) or MOCP5 (5×10^5 cells/well) cells in media containing 30 ng/ml RANKL and DMSO or 1 μM MRK-003 were added the next day. Media were changed every 2 days. TRAP staining was performed on day 6 using a leukocyte acid phosphatase kit (Sigma). TRAP^+-multinucleated cells were scored as mature osteoclasts. The number of nuclei per osteoclast was quantified using TRAP-stained images. Mouse specific qRT-PCR primers were used to selectively quantify Raw264.7 osteoclast gene expression levels after 6 days of coculture (see Table 1 below).
# For primary osteoclast coculture assays, bone marrow cells were flushed out from femora and tibiae of 4- to 6-week-old wild-type FVB mice and plated in basal culture medium overnight. The next day, nonadherent cells were added at 1×10^6/well to 12-well plates that were previously seeded with either control or JAG1 OE tumor cells supplemented with 50 ng/ml RANKL and 50 ng/ml M-CSF. Medium was changed every 3 days. TRAP staining and scoring were performed on days 10-12.
# Notch = conditions: cited from earlier work
compound,measurement,setting,value
O=S1(=O)N[C@@]2(CN1CC(F)(F)F)[C@@H]1CC[C@H]2Cc2ccc(/C=C/CN3CCC(C(F)(F)F)CC3)cc2C1 [MRK-003],123 genes activated at least 3-fold in MC3T3-E1 by JAG1 OE coculture,MC3T3-E1 osteoblasts,concomitantly downregulated
same,growth advantage of JAG1 OE tumor cells in osteoblast coculture,[1],abolished
same,TRAP+ osteoclasts in JAG1 OE cocultures,"[2]; 15-fold increase by JAG1 OE relative to controls, 1 μM MRK-003, FIG. 15A",essentially abolished
same,mRNA expression of osteoclast differentiation markers in Raw 264.7 cells,[2]; JAG1 OE cocultures,suppressed
same,osteoclast size and number of nuclei,"[2]; cocultures with Raw 264.7, FIG. 15C",smaller osteoclasts with fewer nuclei
same,"Acp5 (mouse gene encoding TRAP) mRNA levels, delayed initiation of treatment (Late)","[2]; treatment 2 days after seeding, FIG. 15B",failed to fully rescue
same,efficacy with intermittent exposure in mice,"Notch; Tammam et al., 2009",robust efficacy
same,intestinal effect resulting from Notch inhibition,Notch; recovery during dosing holiday,transient intestinal metaplasia (goblet cell induction)
